Consider eleven compounds from publication PMC12256496, “An advancement in developmental and reproductive toxicity (DART) risk assessment: evaluation of a bioactivity and exposure-based NAM toolbox” (Frontiers in Toxicology, 2025).

Series [1] in a line: Human in vivo PK data: concentration-dose ratio (CDR) and toxicokinetic variability factor (TKVF).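 Note: Literature-pooled human in vivo PK data, plasma, serum or cord blood concentrations per daily dose, weighted by study population size across non-pregnant, pregnant and fetal groups.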 Further details: 95% percentile (Conc-dose-ratio): unit not given here.
For series [2], the system named is developmental or reproductive toxicity in animal or human. Particulars: cited from earlier work.
Another series concerns humans. Particulars: ref Supplementary Data Sheet 1, cited from earlier work.
In another series the test system is rats. Particulars: ref Supplementary Data Sheet 1, cited from earlier work.
The conditions of series [3]: ref Supplementary Data Sheet 1, cited from earlier work.
Series [4] deals with human induced pluripotent stem cell (hiPSC). The series is described as follows: devTOX quickPredict (ornithine/cystine ratio, cell viability). The format is cell-based. The protocol:
devTOX quickPredict is a human induced pluripotent stem cell (hiPSC) -based assay that predicts the concentration at which a compound may elicit developmental toxicity. […] Assays were performed as described in [Palmer et al. (2013)] with modifications. Briefly undifferentiated hiPSCs are exposed to the compound for 48 h, with media and test article replacement every 24 h. Ornithine and […] concentrations were measured from the final 24-h treatment using Ultra-Performance Liquid Chromatography-High Resolution Mass Spectrometry (UPLC-HRMS). Cell viability was assessed after sample collection using the CellTiter-Fluor Cell Viability Assay (Promega). Dose-response analysis for the o/c ratio, cell viability, ornithine response and cystine response were performed with GraphPad Prism (version 9.1 or newer, GraphPad Software). Each data set was fit with a nonlinear model. The standard model used for analysis is a four-parameter log-logistic nonlinear model. However, the Akaike information criterion (GraphPad Prism) was used to determine if an asymmetric (five-parameter) or multiphasic nonlinear model was a better fit for the data than the four-parameter model. The developmental toxicity potential (dTP, o/c ratio) and toxicity potential (TP, cell viability) concentrations were predicted from the respective dose-response curves using the hiPSCs cell developmental toxicity threshold (dTT, 0.85).

The nature of series [5]: hepatic intrinsic clearance, CLint (PBK parameter). The series is classed as in vitro ADME.
The conditions of series [6]: human.
The test system of series [7] is human developmental and reproductive toxicity. The conditions noted are these: cited from earlier work.
For series [8] the following is noted: cited from earlier work.
The conditions of series [9]: ref FSCJ, EFSA, SCF, JMPR as named in the cell; cited from earlier work.
Series [10] is described as follows: Bioactivity exposure ratio (BER): minimum platform PoD / estimated Cmax.
Series [11] in a line: skin absorption / systemic exposure dose for dermal exposure (PBK parameter). The format is in vitro ADME. Particulars: optimised based on [11]. An excerpt: Where a SED (systemic exposure dose) was reported systemic exposure from a dermal administration was modelled as a slow intravenous infusion of the SED, which corrects the applied dose for the rate of skin absorption (%). Where no SED was available dermal exposure route was predicted by the dermal module in GastroPlus® administration.

Series [12] in a line: renal clearance, Fup*GFR (PBK parameter). Particulars: method Fup*GFR.
Series [13] relates to human induced pluripotent stem cells (hiPSCs). The series is described as follows: ReproTracker (cardiomyocyte, hepatocyte-like and neuronal differentiation). The series is classed as cell-based. From the text:
The ReproTracker assay assesses chemical perturbation of early embryonic development by evaluating key events of cardiomyocyte, hepatocyte-like (HLC) and neuronal cell differentiation using human induced pluripotent stem cells (hiPSCs). The ReproTracker protocol is described in ([Jamalpoor et al., 2022]; [Moreau et al., 2023]) and was followed introducing a few modifications to allow for concentration response analysis. […] Lineage specific differentiation was then investigated by assessment of gene expression patterns of cell-specific biomarkers, induced cytotoxicity (AlamarBlue cell viability assay) and by morphological profiling. Gene biomarkers quantified by multiplex qRT-PCR included BMP4 and MYH6 for cardiomyocytes, FOXA2 and AFP for hepatocyte-like cells, PAX6 and NESTIN for neural rosette lineage. […] Saccharin was used as a negative control substance for all 3 lineages. For dose dependent qRT-PCR analysis quality control filtered Ct values were normalised using an adaptation of the Pfaffl ([Pfaffl, 2001]) method to calculate ΔCt values with respect to biomarker and housekeeping gene amplification efficiencies. […] In addition, Alamar blue read outs were taken from the differentiating cells at day 7 and the end of each differentiation to measure cell viability in a dose dependent way. The AlamarBlue readout was normalised and transformed using a Bayesian hierarchical approach The Bayesian model assumes measurement between rows on the treatment plates are correlated but allows for differences in average sample response between rows. […] The final cell viability PODs were those at time point end (day 14 for cardiomyocytes, day 21 for HCLs and day 13 for neural) and had CDS above or equal to 0.5. Both the gene biomarker PODs and cell viability/cytotoxicity PODs for each tested lineage are considered for BER calculation.

Setting [14] is: two multigeneration rat studies.
The mark [15] stands for this setting: evidence of developmental or reproductive toxicity in animal or human, irrespective of exposure/dose, ref Supplementary Data Sheet 1.
Setting [16] is: Non-Pregnant population, TKVF95 = p95 / weighted mean concentration-dose ratio.
Setting [17] is: Foetus, oral, combined (retinyl palmitate, dietary retinoids).
The mark [18] stands for this setting: Non-Pregnant, oral, combined (retinyl palmitate, dietary retinoids).
[19] abbreviates: Pregnant, oral, combined (retinyl palmitate, dietary retinoids).

Read-outs that look alike come from different tables or passages of the source.

The term NOAEL denotes the highest tested level that showed no adverse finding. In general, Aqueous Solubility refers to the concentration that dissolves in the medium under given conditions.

As to `CCOP(=S)(OCC)Oc1nc(Cl)c(Cl)cc1Cl` [Chlorpyrifos], in series [1] (Non-Pregnant, oral), the “Mean Conc-dose -ratio” value was 0.002 uM/(mg/day]. Moreover, the “DART Hazard Call” value in series [2] is listed as “Toxic”. In the series with humans (prenatal exposure, cord blood biomonitoring), the “level of the high exposure group associated with developmental neurotoxicity” value is “The high exposure CPF group (≥4.39 pg/g) was associated with developmental neurotoxicity”.
Consider `CC1(C)C(C=C(Cl)Cl)C1C(=O)OC(C#N)c1cccc(Oc2ccccc2)c1` (centres unmarked) [Cypermethrin], for which the NOAEL with rats (15-day intact adult male rat assay, decreased body weight gain) is reported as 6 mg/kg bw per day. Besides, the “reproductive NOAEL” value with rats (two multigeneration rat studies, decreased survival of pups at birth) is reported as 10 mg/kg bw per day. Moreover, in the series with rats (setting [14]), the “offspring NOAEL” value is reported as 10 mg/kg bw per day and the “parental NOAEL” value was 10 mg/kg bw per day. Besides, in [3] (DNT study), the “developmental NOAEL” value was 15 mg/kg bw per day.
`CCCCOC(=O)c1ccccc1C(=O)OCCCC` [Dibutyl phthalate (DBP), Dibutyl phthalate]: the “response in devTox quickPredict” value in [4] (at concentrations above the TDI) was “positive response”. Also, in series [2], the “DART Hazard Call” value was “Toxic”.
With `CCCCOC(=O)c1ccccc1C(=O)OCCCC` [Dibutyl phthalate], the “Intrinsic Liver Clearance” value in series [5] is given as 1887.4 L/h. In addition, in series [6], the “Renal Clearance” value is listed as 0.2 L/h.
In the case of `CCOc1cc(CCC(C)=O)ccc1O` [Ethylzingerone], the “Renal Clearance” value in [6] is 2.012 L/h. For the same compound, the “Exposure risk (DART risk classification)” value in series [7] was “Low Risk”. Also, in series [2], the “DART Hazard Call” value is “Non Toxic”. For the same compound, in series [8] (pH 6.25), the “Aqueous Solubility” value was 7590 µg/mL.
Take `CC(C)(C)c1ccc(CCOc2ncnc3ccccc23)cc1` [Fenazaquin]: the “Renal Clearance” value in series [6] is 0.577 L/h. In addition, in [7] (Dietary, 3 mg/daily, oral, ref Supplementary Data Sheet 1), the “Exposure risk (DART risk classification)” value is “Low Risk”. For the same compound, the “DART Hazard Call” value in series [2] (setting [15]) is “Non Toxic”. Moreover, the “Aqueous Solubility” value in series [8] (Solubility pH 7.01, median, ref [7],[8]) was 0.19 µg/mL. Moreover, in series [9], the ADI result is “ADI set by JMPR (0.05 mg/kg/day)”. Further, in [3] (parental/systemic toxicity, not reproductive effects), the “NOAEL on which the ADI is based” value was “No evidence of developmental or reproductive toxicity. ADI is based on the NOAEL from this study of 5 mg/kg/day but this was based on parental/systemic toxicity and not reproductive effects”. For the same compound, the BER in [10] (low-risk exposure scenario of the compound) is on record as below 1.
For the compound `Nc1ccc(NCCO)c([N+](=O)[O-])c1` [HC Red 3], the “Intrinsic Liver Clearance” value in series [5] is 248.1 L/h. Moreover, in series [11], the “Diffusivity Dermis” value is listed as 1.00E-08 cm^2/s, the “Diffusivity Stratum Corneum” value is on record as 1.00E-08 cm^2/s, the “Diffusivity Vehicle” value came to 1.00E-05 cm^2/s and the “Diffusivity Viable Epidermis” value is 1.00E-10 cm^2/s. For the same compound, in series [11], the “Partition Coefficient Stratum Corneum/Water” value was 1.50. The “Exposure risk (DART risk classification)” value in [7] was “Low Risk”. The “DART Hazard Call” value in [2] was “Non Toxic”. Further, the “NOAEL for maternal toxicity” value in series [3] was 200 mg/kg/day. Further, the “Renal Clearance” value in series [12] is listed as 4.496 L/h.
In the case of `CN(Cc1cnc2nc(N)nc(N)c2n1)c1ccc(C(=O)N[C@@H](CCC(=O)O)C(=O)O)cc1` [Methotrexate (MTX), Methotrexate], in [1] (setting [16]), the TKVF was 2.74. The TKVF in series [1] (Non-Pregnant, combined (oral, intramuscular, subcutaneous)) stood at 2.74. Besides, in series [1] (female, human, in vivo), the “CDR fold difference to non-pregnant” value is 1.11 and the TKVF is listed as 2.65. Moreover, in series [1] (female, human, in vivo, sc), the “95% percentile (Conc-dose-ratio)” value came to 0.15, the “Fold Difference to non-pregnant” value is listed as 1.11, the “Mean Conc-dose -ratio” value is 0.055 uM/(mg/day] and the TKVF was 2.65. Besides, the “CDR fold difference to non-pregnant” value in series [1] (human, in vivo) came to 1.00. Further, the “concentration leading to effects on iPSC differentiation” value in series [13] (additional testing in ReproTracker, data not shown) is listed as “above 0.0085 μM”. Also, the “BER from devTOX quickPredict” value in [4] (PoD 0.06 μM, high-risk scenario 10 mg/weekly) is given as around 1. Also, the “concentration at which disruption to iPSC metabolism was detected” value in [4] (devTOX quickPredict) was 0.06 µM. Besides, in [7] (Pharmaceutical, 10 mg/weekly, oral, ref Supplementary Data Sheet 1), the “Exposure risk (DART risk classification)” value is on record as “High Risk”. In addition, in [2] (setting [15]), the “DART Hazard Call” value is “Toxic”.
Consider `CC1=C(/C=C/C(C)=C/C=C/C(C)=C/CO)C(C)(C)CCC1` [Retinol], for which the results for the “CDR fold difference to non-pregnant” value in [1] (Fetus population), in series [1] (Non-Pregnant population (reference)) and in series [1] (Pregnant population) were 0.82, 1.00 and 0.88, respectively. The TKVF in [1] (Fetus population, TKVF95 = p95 / weighted mean concentration-dose ratio) is 1.86; in series [1] (setting [17]), 1.86; in series [1] (setting [16]), 2.32; in series [1] (setting [18]), 2.32; in series [1] (Pregnant population, TKVF95 = p95 / weighted mean concentration-dose ratio), 1.64; in series [1] (setting [19]), 1.64. The “95% percentile (Conc-dose-ratio)” value in series [1] (setting [17]) came to 2.85; in series [1] (setting [18]), 4.34; in series [1] (setting [19]), 2.70. For the same compound, the “Fold Difference to non-pregnant” value in series [1] (setting [17]) came to 0.82; in series [1] (setting [18]), 1.00; in [1] (setting [19]), 0.88. The “Fold Difference to pregnant” value in series [1] (setting [17]) stood at 0.93; in series [1] (setting [19]), 1.00. Further, the “Mean Conc-dose -ratio” value in [1] (setting [17]) is given as 1.54 uM/(mg/day]; in series [1] (setting [18]) it was 1.87 uM/(mg/day]; in [1] (setting [19]), 1.65 uM/(mg/day]. In addition, the “Exposure risk (DART risk classification)” value is reported as “Low Risk” in series [7] (Cosmetic, 0.05% in body lotion, dermal, ref Supplementary Data Sheet 1) and “Low Risk” in series [7] (Dietary, <10,000 IU, oral, ref Supplementary Data Sheet 1). In addition, the “DART Hazard Call” value in [2] (setting [15]) is “Toxic”. The “exposure above which DART effects are seen in vivo” value in the series with humans was “above 3,000 μg RE/day”. In series [10] (low-risk scenario of normal dietary exposure to retinol and its metabolite), the BER is below 1.
Consider `O=C1CCC(N2C(=O)c3ccccc3C2=O)C(=O)N1` (centres unmarked) [Thalidomide], for which, in series [1] (human, in vivo, po), the “95% percentile (Conc-dose-ratio)” value is reported as 0.06, the “Mean Conc-dose -ratio” value is 0.036 uM/(mg/day] and the TKVF was determined as 1.73. For the same compound, the “Exposure risk (DART risk classification)” value in series [7] (Pharmaceutical, 50 mg/daily, oral, ref Supplementary Data Sheet 1) is listed as “High Risk”. Moreover, in [2] (setting [15]), the “DART Hazard Call” value is on record as “Toxic”. Also, in the series on humans (infants), the “mortality at or shortly after birth” value was “Thalidomide is a powerful human teratogen, inducing a high frequency of severe and life-threatening birth defects, even after a single dose. Mortality at or shortly after birth has been reported in about 40% of infants”.
Take `CC(=O)CC(c1ccccc1)c1c(O)c2ccccc2oc1=O` (centres unmarked) [Warfarin]: the TKVF in [1] (female, human, in vivo) is recorded as 1.93; in [1] (female, human, in vivo, po), 1.93; in [1] (human, in vivo), 1.82; in series [1] (human, in vivo, po), 1.82. For the same compound, in series [13] (at higher concentrations, not sensitive enough for a protective PoD), the ReproTracker outcome is listed as “flags potential embryotoxicity”.
